In patent publication US9382226B2, “Aldosterone synthase inhibitors” (Merck Sharp & Dohme Corp., priority 2010, dated 2016):
pIC50: −log10 of the molar value.

Legend:
[1] = target: T1, human CYP11B1 (Homo sapiens, UniProt P15538); assay: V79-Human-CYP11B1 cell assay (cortisol formation, HTRF); type: cell-based; conditions: V79 cells stably expressing human CYP11B1; substrate 250 nM 11-deoxycortisol; 3 hours
T1 construct: expressed in transfected cells; host or cells: V79 cells (clone V79-hCYP11B1-8C7)
T1 sequence (P15538 25-503): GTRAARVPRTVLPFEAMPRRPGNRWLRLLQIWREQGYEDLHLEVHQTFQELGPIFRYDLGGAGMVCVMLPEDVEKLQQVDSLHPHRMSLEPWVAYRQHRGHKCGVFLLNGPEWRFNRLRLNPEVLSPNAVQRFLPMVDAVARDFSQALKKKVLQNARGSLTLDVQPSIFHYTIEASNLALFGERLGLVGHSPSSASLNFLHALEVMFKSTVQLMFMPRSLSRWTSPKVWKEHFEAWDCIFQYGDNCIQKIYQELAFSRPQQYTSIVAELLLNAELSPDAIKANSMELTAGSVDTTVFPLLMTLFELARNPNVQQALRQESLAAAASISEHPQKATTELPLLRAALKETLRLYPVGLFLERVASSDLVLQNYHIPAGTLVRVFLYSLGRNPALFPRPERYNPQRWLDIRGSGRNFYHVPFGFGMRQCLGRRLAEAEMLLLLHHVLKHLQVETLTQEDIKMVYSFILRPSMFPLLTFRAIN
Description: Methods for V79-Human-CYP11B2 and V79-Human-CYP11B1 Assays: V79 cell lines stably expressing the either the human CYP11B2 or the human CYP11B1 enzyme were generated using a standard transfection protocol. V79 cells were transfected with plasmids pTriEx3-Hygro-hCyp11B2 or pTriEx3-Hygro-hCyp11B1 using Lipofectamine2000 reagent. V79 cells that stably express the human CYP11B2 or human CYP11B1 enzyme were selected for and maintained in DMEM supplemented with 10% FBS and 400 μg/mL hygromycin for ˜2 weeks. Single cell clones were generated by […] in DMEM supplemented with 10% FBS and 400 μg/mL hygromycin until single colonies were obtained. […] For testing of inhibitors, cells were harvested at 80% confluency with 0.5% Trypsan-EDTA, washed once in PBS, and reconstituted in DMEM 0.1% BSA media at a cell concentration of 400,000 cells/mL. 25 μl of cells were added to a 384 well tissue culture treated plate and mixed with 0.25 μl of inhibitor or DMSO (1% final DMSO concentration) for 1 hour at 37° C., 5% CO2. […] The reaction was carried out for 3 hours at 37° C., 5% CO2 and was stopped by harvesting the supernatants. The amount of product in the supernatant (aldosterone for CYP11B2 assay and cortisol for the CYP11B1 assay) was measured using HTRF-based assay kit (Aldosterone HTRF-CisBio#64ALDPEB, Cortisol HTRF-CisBio #63IDC002-CORT). IC50's for the inhibitor were determined by plotting the amount of product formed against the concentration of inhibitor using sigmoidal dose-response curve (variable slope) fit in GraphPad.

[2] = target: T2, human CYP11B2 (Homo sapiens, UniProt P19099); assay: V79-Human-CYP11B2 cell assay (aldosterone formation, HTRF); type: cell-based; conditions: V79 cells stably expressing human CYP11B2; substrate 125 nM 11-deoxycorticosterone; 3 hours
T2 construct: expressed in transfected cells; host or cells: V79 cells (clone V79-hCYP11B2-CLE9)
T2 sequence (P19099 25-503): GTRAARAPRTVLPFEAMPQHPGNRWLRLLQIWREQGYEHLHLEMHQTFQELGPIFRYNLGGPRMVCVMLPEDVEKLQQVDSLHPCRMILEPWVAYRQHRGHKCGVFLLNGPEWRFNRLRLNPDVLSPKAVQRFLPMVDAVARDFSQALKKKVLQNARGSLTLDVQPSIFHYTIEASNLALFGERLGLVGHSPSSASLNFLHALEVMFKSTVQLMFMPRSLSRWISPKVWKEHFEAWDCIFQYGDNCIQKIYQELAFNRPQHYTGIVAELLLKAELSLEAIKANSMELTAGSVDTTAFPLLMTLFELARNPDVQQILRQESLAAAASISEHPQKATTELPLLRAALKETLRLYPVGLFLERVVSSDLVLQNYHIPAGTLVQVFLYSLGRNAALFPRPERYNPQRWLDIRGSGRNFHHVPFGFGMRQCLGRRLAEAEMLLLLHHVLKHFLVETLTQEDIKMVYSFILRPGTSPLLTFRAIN
Description: Methods for V79-Human-CYP11B2 and V79-Human-CYP11B1 Assays: V79 cell lines stably expressing the either the human CYP11B2 or the human CYP11B1 enzyme were generated using a standard transfection protocol. V79 cells were transfected with plasmids pTriEx3-Hygro-hCyp11B2 or pTriEx3-Hygro-hCyp11B1 using Lipofectamine2000 reagent. V79 cells that stably express the human CYP11B2 or human CYP11B1 enzyme were selected for and maintained in DMEM supplemented with 10% FBS and 400 μg/mL hygromycin for ˜2 weeks. Single cell clones were generated by […] in DMEM supplemented with 10% FBS and 400 μg/mL hygromycin until single colonies were obtained. Clones V79-hCYP11B2-CLE9 and V79-hCYP11B1-8C7, were determined to produce the most aldosterone and cortisol, respectively, and were selected for inhibitor screening. For testing of inhibitors, cells were harvested at 80% confluency with 0.5% Trypsan-EDTA, washed once in PBS, and reconstituted in DMEM 0.1% BSA media at a cell concentration of 400,000 cells/mL. 25 μl of cells were added to a 384 well tissue culture treated plate and mixed with 0.25 μl of inhibitor or DMSO (1% final DMSO concentration) for 1 hour at 37° C., 5% CO2. After pre-incubation with inhibitor, the reaction was initiated by adding 5 μl of substrate (final concentration of 125 nM 11-deoxycorticosterone for the CYP11B2 assay or 250 nM 11-deoxycortisol for the CYP11B1 assay). The reaction was carried out for 3 hours at 37° C., 5% CO2 and was stopped by harvesting the supernatants. The amount of product in the supernatant (aldosterone for CYP11B2 assay and cortisol for the CYP11B1 assay) was measured using HTRF-based assay kit (Aldosterone HTRF-CisBio#64ALDPEB, Cortisol HTRF-CisBio #63IDC002-CORT). IC50's for the inhibitor were determined by plotting the amount of product formed against the concentration of inhibitor using sigmoidal dose-response curve (variable slope) fit in GraphPad.

SMILES | pIC50 [1] | pIC50 [2]
Cn1c(-c2cccnc2)nc2cc(F)ccc21 [Example 4, 5-fluoro-1-methyl-2-(pyridin-3-yl)-1H-benzimidazole] | 5.39 | 7.59
Fc1ccc2nc(-c3cncc4ccccc34)n(C3CC3)c2c1 [Example 16, 4-(1-cyclopropyl-6-fluoro-1H-benzimidazol-2-yl)isoquinoline] | 7.23 | 10.00
Fc1ccc2c(c1)nc(-c1cccnc1)n2C1CC1 [Example 17, 1-cyclopropyl-5-fluoro-2-(pyridin-3-yl)-1H-benzimidazole] | 5.40 | 7.55
CCn1c(-c2cncc3ccccc23)nc2cc(F)ccc21 [Example 26, 4-(1-ethyl-5-fluoro-1H-benzimidazol-2-yl)isoquinoline] | 6.52 | 8.42
Fc1cc2nc(-c3cncc4ccccc34)n(C3CC3)c2cc1F [Example 32, 4-(1-cyclopropyl-5,6-difluoro-1H-benzimidazol-2-yl)isoquinoline] | 8.02 | 10.00
CC(C)(O)c1cncc(-c2nc3cc(F)c(F)cc3n2C2CC2)c1 [Example 38, 2-[5-(1-Cyclopropyl-5,6-difluoro-1H-benzimidazol-2-yl)pyridin-3-yl]propan-2-ol] | 7.38 | 9.52
COC(C)(C)c1cncc(-c2nc3cc(F)c(F)cc3n2C2CC2)c1 [Example 39, 1-cyclopropyl-5,6-difluoro-2-[5-(2-methoxypropan-2-yl)pyridin-3-yl]-1H-benzimidazole] | 8.47 | 9.52
COC(C)(C)c1cncc(-c2nc3ccc(F)cc3n2C2CC2)c1 [Example 51, 1-cyclopropyl-6-fluoro-2-[5-(2-methoxypropan-2-yl)pyridin-3-yl]-1H-benzimidazole] | 8.33 | 9.70
N#Cc1ccc2nc(-c3cccnc3)n(C3CC3)c2c1 [Example 75, 1-cyclopropyl-2-(pyridin-3-yl)-1H-benzo[d]imidazole-6-carbonitrile] | 6.43 | 8.91
COc1cncc(-c2nc3ccc(C#N)cc3n2C2CC2)c1 [Example 76, 1-cyclopropyl-2-(5-methoxypyridin-3-yl)-1H-benzimidazole-6-carbonitrile] | 5.76 | 9.37
Cn1c(-c2cccnc2)nc2ccc(C#N)cc21 [Example 99, 1-methyl-2-(pyridin-3-yl)-1H-benzimidazole-6-carbonitrile] | 7.01 | 9.50
Fc1cncc(-c2nc3cc(F)c(Cl)cc3n2C2CC2)c1 [Example 129, 6-chloro-1-cyclopropyl-5-fluoro-2-(5-fluoropyridin-3-yl)-1H-benzimidazole] | 6.79 | 9.09
Fc1cc2nc(-c3cncc4ccccc34)n(C3CC3)c2cc1Cl [Example 131, 4-(6-chloro-1-cyclopropyl-5-fluoro-1H-benzimidazol-2-yl)isoquinoline] | 6.91 | 9.90
Fc1cc2nc(-c3cccnc3)n(C3CC3)c2cc1Cl [Example 132, 6-chloro-1-cyclopropyl-5-fluoro-2-(pyridin-3-yl)-1H-benzimidazole] | 5.00 | 9.22
Cc1cncc(-c2nc3cc(F)c(Cl)cc3n2C2CC2)c1 [Example 135, 6-chloro-1-cyclopropyl-5-fluoro-2-(5-methylpyridin-3-yl)-1H-benzimidazole] | 6.22 | 9.65
Fc1cncc(-c2nc3ccc(Br)cc3n2C2CC2)c1 [Example 172, 6-bromo-1-cyclopropyl-2-(5-fluoropyridin-3-yl)-1H-benzimidazole] | 6.02 | 8.45
Cc1cncc(-c2nc3cc(F)c(F)cc3n2C)c1 [Example 212, 5,6-difluoro-1-methyl-2-(5-methylpyridin-3-yl)-1H-benzimidazole] | 6.83 | 9.23
COc1c(C)cncc1-c1nc2cc(F)c(F)cc2n1C1CC1 [Example 226, 1-cyclopropyl-5,6-difluoro-2-(4-methoxy-5-methylpyridin-3-yl)-1H-benzimidazole] | 6.10 | 8.95
COc1cncc(-c2nc3ccc(Cl)cc3n2C)c1 [Example 232, 6-chloro-2-(5-methoxypyridin-3-yl)-1-methyl-1H-benzimidazole] | 6.79 | 9.70
Cn1c(-c2cccnc2)nc2ccc(Cl)cc21 [Example 233, 6-chloro-1-methyl-2-(pyridin-3-yl)-1H-benzimidazole] | 6.57 | 8.94
Clc1ccc2nc(-c3cccnc3)n(C3CC3)c2c1 [Example 250, 6-chloro-1-cyclopropyl-2-(pyridin-3-yl)-1H-benzimidazole] | 6.37 | 8.80
Cn1c(-c2cncc3ccccc23)nc2cc(F)cc(F)c21 [Example 256, 4-(5,7-difluoro-1-methyl-1H-benzimidazol-2-yl)isoquinoline] | 6.31 | 9.46
Cn1c(-c2cncc3ccccc23)nc2ccc(F)c(F)c21 [Example 267] | 6.69 | 9.82
Cc1cncc(-c2nc3ccc(F)c(F)c3n2C)c1C [Example 268, 2-(4,5-dimethylpyridin-3-yl)-6,7-difluoro-1-methyl-1H-benzimidazole] | 6.93 | 9.63
Fc1ccc2nc(-c3cncc4ccccc34)n(C3CC3)c2c1F [Example 279, 4-(1-cyclopropyl-6,7-difluoro-1H-benzimidazol-2-yl)isoquinoline] | 6.69 | 9.55
Cc1cncc(-c2nc3ccc(F)c(F)c3n2C2CC2)c1C [Example 282, 1-cyclopropyl-2-(4,5-dimethylpyridin-3-yl)-6,7-difluoro-1H-benzimidazole] | 6.53 | 9.38
Cc1ccncc1-c1nc2ccc(F)c(F)c2n1C1CC1 [Example 284, 1-cyclopropyl-6,7-difluoro-2-(4-methylpyridin-3-yl)-1H-benzimidazole] | 6.52 | 8.87
